Here are results for 22 molecules from US20070025986A1, “Modulation of HCN channels by second messengers” (priority 2003, published 2007).

The subject of experiment [1] is native pacemaker channels (IH). To be noted: cited from earlier work.
The test system of the next experiment is HCN1 channel. As to the kind of experiment: Two microelectrode voltage clamp (2MEV) of HCN1 and HCN1 mutants expressed in Xenopus oocytes. It counts as cell-based, mouse. To be noted: forskolin 10 μM, 30 min, SQ-22536 300 μM, 3 hr.
[2] abbreviates: DRG: Dorsal root ganglion neurons.
Where [3] appears, read: ADn: Thalamic anterior dorsal relay neurons.
Where [4] appears, read: CA1: CA1 pyramidal neurons or unidentified CA1 cells.
[5] abbreviates: MTNB: medial nucleus of the trapezoid body.
Where [6] appears, read: SO: CA1 stratum oriens-alveus interneuron.
[7] abbreviates: CP: Cerebellar purkinje neurons.
The mark [8] stands for this setting: ORN: Olfactory receptor neurons.

Where two headings read alike, the source gives them in different places. No end group written: not given here.

As for `OC[C@H]1O[C@@H](n2cnc3c(NC4CCCC4)ncnc32)[C@H](O)[C@@H]1O` [N6-CPA], the figures for the “Δ V1/2” value in experiment [1] (setting [2]) and in experiment [1] (SA: sinoatrial node) were −7 mV and −6 mV, respectively.

As for `CCCCC[C@H](O)/C=C/[C@H]1[C@H](O)CC(=O)[C@@H]1C/C=C\CCCC(=O)O` [PGE2], in experiment [1] (NG: Nodose ganglion), the “Δ IMAX” value is given as “+18% NG, TG” and the “Δ V1/2” value is reported as “+6 mV NG, TG”. In addition, in experiment [1] (TG: Trigeminal ganglion), the “Δ IMAX” value is “+18% NG, TG” and the “Δ V1/2” value is on record as “+6 mV NG, TG”.

On to `Clc1cccc(Cl)c1N=C1NCCN1` [Clonidine], for which the “Δ IMAX” value in experiment [1] (setting [2]) was “HG, −40% DRG”. Besides, the “Δ V1/2” value in experiment [1] (HG: Hypoglossal motor neurons) was −4 mV HG.

Consider EGF: agonist listed for EGF receptor, for which, in experiment [1] (SA: sinoatrial node), the “Δ IMAX” value was “+23% SA”.

For the molecule “AT-II: agonist listed for angiotensin AT½ receptor (DRVYIHPF; Angiotensin-2; UniProt P01019 25-32, looked up)”, the “Δ V1/2” value in experiment [1] (PVN: Hypothalamic paraventricular neurons) was “+8m PVN”.

`NCCc1c[nH]c2ccc(C(N)=O)cc12` [5CT]: the entries for the “Δ V1/2” value in experiment [1] (setting [3]), in experiment [1] (setting [4]) and in experiment [1] (setting [2]) were “+15 mV”, “+5 mV CA1” and “+6 mV”, respectively. For the same molecule, the “Δ IMAX” value in experiment [1] (setting [4]) was “+50%”.

In the case of `NC[C@H](O)c1ccc(O)c(O)c1` [NorE], the “Δ IMAX” value is recorded as “+90%” in experiment [1] (AT: atrial myocyte), “+65%” in experiment [1] (ECM: Embryonic cardiomyocytes), “+30%” in experiment [1] (setting [6]) and “ECM; +31% TR; BC;” in experiment [1] (TR: thalamic relay). In addition, the “Δ V1/2” value in experiment [1] (AT: atrial myocyte) is listed as “+11 mV”; in experiment [1] (BC: cerebllar basket cell), “+6 mV”; in experiment [1] (setting [5]), “+12 mV”; in experiment [1] (TR: thalamic relay), “+5 mV”.

As for “Sub P: agonist listed for tachykinin NK 1/2/3 receptor (RPKPQQFFGLM; ends and bridges not checked; UniProt P20366 58-68, looked up)”, the “Δ V1/2” value in experiment [1] (NG: Nodose ganglion) was −20 mV. NG.

For the molecule `CCCCCCCC/C=C/CCCCCCCC(=O)OCC(CO)OC(C)=O` (stereo not shown) [OAG], the “Δ IMAX” value in experiment [1] (SNPC: Substantia nigra pars compacta) is listed as −49% SNPC.

Turning to `NCC(CC(=O)O)c1ccc(Cl)cc1` (stereo not shown) [Baclofen], the “Δ IMAX” value in experiment [1] (SNZC: Substantia nigra zona compacta) is on record as −11%; in experiment [1] (VT: Ventral tegmental neurons) it was −20%.

As to `CCCN(CCC)C1CCc2cccc(O)c2C1` (stereo not shown) [8-OH-DPAT], in experiment [1] (ST: Solitary tract neurons), the “Δ IMAX” value is on record as “+100% ST”.

For the molecule `Nc1ncnc2c1ncn2C1CCCO1` (stereo not shown) [SQ-22536], in the experiment with HCN1 channel (HCN1-R538E), the Effect on gating result is “not altered”. The “Effect on V1/2 of activation” value in the experiment on HCN1 channel (wild type HCN1) is “inhibited”.

With `CC(C)NCC(O)c1ccc(O)c(O)c1` (stereo not shown) [Isoproterenol], the “Δ IMAX” value in experiment [1] (AT: atrial myocyte) is “+90%”; in experiment [1] (ECM: Embryonic cardiomyocytes), “+65%”; in experiment [1] (setting [6]), “+30%”; in experiment [1] (TR: thalamic relay) it was “ECM; +31% TR; BC;”. In addition, the “Δ V1/2” value is “+11 mV” in experiment [1] (AT: atrial myocyte), “+6 mV” in experiment [1] (BC: cerebllar basket cell), “+12 mV” in experiment [1] (setting [5]) and “+5 mV” in experiment [1] (TR: thalamic relay).

`C[N+](C)(C)CCOC(N)=O` [carbachol]: the “Δ IMAX” value is given as −41% in experiment [1] (ECM: Embryonic cardiomyocytes) and “CA1; +43% LGN” in experiment [1] (LGN). The “Δ V1/2” value in experiment [1] (LGN) is “CA1; +5 mV LGN”; in experiment [1] (PF: cardiac purkinje fibre), −8 mV SA, PF; in experiment [1] (SA: sinoatrial node), −8 mV SA, PF.

Take `COc1cc(CC(C)N)c(OC)cc1I` (stereo not shown) [DOI]: the “Δ V1/2” value in experiment [1] (setting [7]) is given as −8 mV; in experiment [1] (VT: Ventral tegmental neurons), −7 m. Also, the “Δ IMAX” value in experiment [1] (FM: Facial motor neurons) is listed as “+25%”.

Turning to “PACAP38: agonist listed for PAC1 receptor (HSDGIFTDSYSRYRKQMAVKKYLAAVLGKRYKQRVKNK; ends and bridges not checked; UniProt P18509 132-169, looked up)”, in experiment [1] (TR: thalamic relay), the “Δ IMAX” value is reported as “+30% TR” and the “Δ V1/2” value is reported as “+7 mV TR”.

Regarding `Nc1ncnc2c1ncn2[C@@H]1O[C@H](CO)[C@@H](O)[C@H]1O` [Adenosine], the figures for the “Δ V1/2” value in experiment [1] (setting [2]) and in experiment [1] (SA: sinoatrial node) were −7 mV and −6 mV, respectively.

As to “VIP: agonist listed for PAC1 receptor (HSDAVFTDNYTRLRKQMAVKKYLNSILN; ends and bridges not checked; UniProt P01282 125-152, looked up)”, in experiment [1] (TR: thalamic relay), the “Δ IMAX” value is “+30% TR” and the “Δ V1/2” value is “+7 mV TR”.

For `NCCc1c[nH]c2ccc(O)cc12` [5-HT], the “Δ V1/2” value in experiment [1] (setting [3]) is reported as “+15 mV”; in experiment [1] (BSMN: Brainstem motor neurons), “+6 mV BSMN”; in experiment [1] (CMN: crustacean motor neurons), “+10 mV”; in experiment [1] (setting [7]), −8 mV; in experiment [1] (setting [2]), “+6 mV”; in experiment [1] (TR: thalamic relay), “+5 mV”. The “Δ V1/2” value in experiment [1] (VT: Ventral tegmental neurons) is −7 m. In addition, the “Δ IMAX” value in experiment [1] (CMN: crustacean motor neurons) is “+20%”; in experiment [1] (FM: Facial motor neurons), “+25%”; in experiment [1] (PH: Prepositus Hyperglossi neurons), “+30%”; in experiment [1] (ST: Solitary tract neurons) it was “+100% ST”; in experiment [1] (TR: thalamic relay) it was “+20%”.

For the molecule `NCCc1ccc(O)c(O)c1` [Dopamine], the “Δ IMAX” value in experiment [1] (setting [8]) is listed as −50%; in experiment [1] (ROD: Rod photoreceptors), −30% ROD; in experiment [1] (VT: Ventral tegmental neurons) it was −20%. Further, the figures for the “Δ V1/2” value in experiment [1] (setting [8]), in experiment [1] (PG: Pyloric ganglion motor neurons) and in experiment [1] (ROD: Rod photoreceptors) were −9 mV, “+20 mV PG” and −17 mV, respectively.

As to `OC[C@H]1O[C@@H](n2cnc3c(NC4CCCCC4)ncnc32)[C@H](O)[C@@H]1O` [N6-CHA], the “Δ V1/2” value is on record as −7 mV in experiment [1] (setting [2]) and −6 mV in experiment [1] (SA: sinoatrial node).

B1: BDNF: neurotrophin, agonist listed for TrkA/B/C, P75 (protein, UniProt P23560 19-247, looked up)
Neurotrophic factor BDNF …: APMKEANIRGQGGLAYPGVRTHGTLESVNGPKAGSRGLTSLADTFEHVIEELLDEDQKVRPNEENNKDADLYTSRVMLSSQVPLEPPLLFLLEEYKNYLDAANMSMRVRRHSDPARRGELSVCDSISEWVTAADKKTAVDMSGGTVTVLEKVPVSKGQLKQYFYETKCNPMGYTKEGCRGIDKRHWNSQCRTTQSYVRALTMDSKKRIGWRFIRIDTSCVCTLTIKRGR
On to B1, for which, in experiment [1] (PBC: Pre-botzinger complex), the “Δ IMAX” value is on record as −46% PBC and the “Δ V1/2” value is −17 mV PBC.
